Measurements as given in the NIST ThermoML archive (doi:10.1007/s10765-016-2109-2).
± gives the expanded uncertainty stated by the source.

Legend:
[1] = molar heat capacity at constant volume; conditions: Liquid, Vacuum adiabatic calorimetry
[2] = Liquid, isochoric method

CCCCCC[n+]1ccn(C)c1.O=S(=O)([N-]S(=O)(=O)C(F)(F)F)C(F)(F)F
[1]
Conditions | molar heat capacity at constant volume [J/K/mol]
325.26 K, Mass density=1344.14 kg/m3 | 609.39 ± 37
325.39 K, Mass density=1344.14 kg/m3 | 608.49 ± 37
325.51 K, Mass density=1344.14 kg/m3 | 608.94 ± 37
325.63 K, Mass density=1344.14 kg/m3 | 608.49 ± 37
325.75 K, Mass density=1344.14 kg/m3 | 609.83 ± 37
325.88 K, Mass density=1344.14 kg/m3 | 608.94 ± 37
326 K, Mass density=1344.14 kg/m3 | 608.04 ± 37
326.13 K, Mass density=1344.14 kg/m3 | 606.7 ± 36
326.26 K, Mass density=1344.14 kg/m3 | 608.49 ± 37
328.58 K, Mass density=1344.14 kg/m3 | 609.83 ± 37
328.7 K, Mass density=1344.14 kg/m3 | 608.49 ± 37
328.82 K, Mass density=1344.14 kg/m3 | 607.6 ± 36
328.94 K, Mass density=1344.14 kg/m3 | 606.25 ± 36
329.07 K, Mass density=1344.14 kg/m3 | 607.15 ± 36
329.19 K, Mass density=1344.14 kg/m3 | 609.39 ± 37
329.31 K, Mass density=1344.14 kg/m3 | 609.83 ± 37
329.43 K, Mass density=1344.14 kg/m3 | 605.36 ± 36
333.09 K, Mass density=1344.14 kg/m3 | 612.07 ± 37
333.21 K, Mass density=1344.14 kg/m3 | 606.25 ± 36
333.33 K, Mass density=1344.14 kg/m3 | 609.39 ± 37
333.45 K, Mass density=1344.14 kg/m3 | 613.86 ± 37
333.57 K, Mass density=1344.14 kg/m3 | 607.6 ± 36
333.7 K, Mass density=1344.14 kg/m3 | 610.73 ± 37
333.82 K, Mass density=1344.14 kg/m3 | 613.41 ± 37
333.94 K, Mass density=1344.14 kg/m3 | 609.83 ± 37
341.28 K, Mass density=1344.14 kg/m3 | 615.2 ± 37
341.4 K, Mass density=1344.14 kg/m3 | 610.73 ± 37
341.52 K, Mass density=1344.14 kg/m3 | 617.44 ± 37
341.64 K, Mass density=1344.14 kg/m3 | 612.96 ± 37
341.76 K, Mass density=1344.14 kg/m3 | 620.12 ± 37
341.88 K, Mass density=1344.14 kg/m3 | 615.65 ± 37
342 K, Mass density=1344.14 kg/m3 | 614.75 ± 37
342.12 K, Mass density=1344.14 kg/m3 | 618.78 ± 37
348.64 K, Mass density=1344.14 kg/m3 | 619.23 ± 37
348.76 K, Mass density=1344.14 kg/m3 | 617.89 ± 37
348.88 K, Mass density=1344.14 kg/m3 | 621.91 ± 37
348.99 K, Mass density=1344.14 kg/m3 | 620.12 ± 37
349.11 K, Mass density=1344.14 kg/m3 | 618.78 ± 37
349.23 K, Mass density=1344.14 kg/m3 | 623.7 ± 38
349.35 K, Mass density=1344.14 kg/m3 | 617.44 ± 37
349.47 K, Mass density=1344.14 kg/m3 | 622.81 ± 38
349.58 K, Mass density=1344.14 kg/m3 | 619.68 ± 37
350.36 K, Mass density=1323.92 kg/m3 | 625.05 ± 38
350.41 K, Mass density=1323.92 kg/m3 | 624.15 ± 38
350.53 K, Mass density=1323.92 kg/m3 | 623.26 ± 38
350.64 K, Mass density=1323.92 kg/m3 | 622.36 ± 37
350.76 K, Mass density=1323.92 kg/m3 | 625.49 ± 38
350.88 K, Mass density=1323.92 kg/m3 | 624.6 ± 38
350.99 K, Mass density=1323.92 kg/m3 | 621.02 ± 37
351.11 K, Mass density=1323.92 kg/m3 | 621.91 ± 37
351.23 K, Mass density=1323.92 kg/m3 | 623.26 ± 38
351.35 K, Mass density=1323.92 kg/m3 | 620.12 ± 37
351.46 K, Mass density=1323.92 kg/m3 | 621.02 ± 37
351.58 K, Mass density=1323.92 kg/m3 | 622.36 ± 37
351.7 K, Mass density=1323.92 kg/m3 | 620.57 ± 37
351.82 K, Mass density=1323.92 kg/m3 | 621.47 ± 37
351.93 K, Mass density=1323.92 kg/m3 | 619.68 ± 37
352.03 K, Mass density=1323.92 kg/m3 | 621.47 ± 37
360.03 K, Mass density=1323.92 kg/m3 | 626.39 ± 38
360.19 K, Mass density=1323.92 kg/m3 | 624.15 ± 38
360.3 K, Mass density=1323.92 kg/m3 | 628.18 ± 38
360.42 K, Mass density=1323.92 kg/m3 | 622.81 ± 38
360.53 K, Mass density=1323.92 kg/m3 | 625.05 ± 38
360.65 K, Mass density=1323.92 kg/m3 | 622.36 ± 37
360.76 K, Mass density=1323.92 kg/m3 | 623.26 ± 38
360.88 K, Mass density=1323.92 kg/m3 | 621.02 ± 37
360.99 K, Mass density=1323.92 kg/m3 | 621.47 ± 37
361.11 K, Mass density=1323.92 kg/m3 | 622.81 ± 38
361.22 K, Mass density=1323.92 kg/m3 | 620.57 ± 37
361.34 K, Mass density=1323.92 kg/m3 | 627.28 ± 38
365.26 K, Mass density=1323.92 kg/m3 | 624.15 ± 38
365.35 K, Mass density=1323.92 kg/m3 | 629.52 ± 38
365.47 K, Mass density=1323.92 kg/m3 | 627.28 ± 38
365.58 K, Mass density=1323.92 kg/m3 | 625.49 ± 38
365.69 K, Mass density=1323.92 kg/m3 | 632.65 ± 38
365.81 K, Mass density=1323.92 kg/m3 | 622.36 ± 37
365.92 K, Mass density=1323.92 kg/m3 | 629.07 ± 38
366.04 K, Mass density=1323.92 kg/m3 | 627.28 ± 38
366.15 K, Mass density=1323.92 kg/m3 | 630.41 ± 38
366.27 K, Mass density=1323.92 kg/m3 | 623.7 ± 38
366.38 K, Mass density=1323.92 kg/m3 | 629.97 ± 38
372.87 K, Mass density=1323.92 kg/m3 | 635.78 ± 38
372.96 K, Mass density=1323.92 kg/m3 | 634.44 ± 38
373.07 K, Mass density=1323.92 kg/m3 | 631.76 ± 38
373.18 K, Mass density=1323.92 kg/m3 | 633.1 ± 38
373.29 K, Mass density=1323.92 kg/m3 | 636.68 ± 38
373.41 K, Mass density=1323.92 kg/m3 | 629.07 ± 38
373.52 K, Mass density=1323.92 kg/m3 | 634.89 ± 38
373.63 K, Mass density=1323.92 kg/m3 | 629.97 ± 38
373.74 K, Mass density=1323.92 kg/m3 | 631.31 ± 38
373.86 K, Mass density=1323.92 kg/m3 | 638.02 ± 38
373.97 K, Mass density=1323.92 kg/m3 | 636.68 ± 38
374.08 K, Mass density=1323.92 kg/m3 | 638.92 ± 38

[2]
Conditions | mass density [kg/m3]
325.26 K | 1344.14 ± 3.3
350.36 K | 1323.92 ± 3.2
